Measured values from patent publication US8765799B2, “Streptospirole derivatives” (Sanofi, priority 2008, dated 2014).
In brackets after ≈: the same amount, converted by molar mass.

Assays:
S. aureus (ATCC 33592) = assay: Broth microdilution IC50 determination, S. aureus ATCC 33592; assay type: cell-based; settings: Staphylococcus aureus, ATCC33592, assay mode Abs. (590 nm)
Method: (§1) The compounds of the formula (I) are used in a test as further outlined in Examples section in a single dose of 0.125-64μg/ml and a dose dependency is given as a IC50 value in Table 6. This Example describes the standard broth dilution method-microdilution used to determine the in vitro susceptibility of bacteria growing aerobically according to NCCLS M7-A7. The IC50 value of the compound to be tested is calculated as the inhibitory concentration of 50% at which 50% visible turbidity or the ATP level is inhibited. Compound stock solutions were prepared at concentrations of at least 1000μg/ml with methanol. After testing, the stock solution is aliquoted and stored at −80° C. Nystatin was dissolved in DMSO and then further dissolved in the respective culture medium. For every test strain following controls on each 384 well clear-transparent microtitration plate are needed: • drug-free growth control, • sterile control, and • Ciprofloxacin and Nystatin as reference compounds. For an IC50 determination at least ten or twenty serial dilutions (geometrical dilution with factor 2) were prepared. The usual test concentrations range from 64 to 0.125μg/ml or 64 to 0.0001μg/ml for strong inhibition. At the specification of the concentration the inoculation volume has to be considered. The whole test volume (compound solution and inoculum) was prepared with 40μl and accordingly for Mycobacterium smegmatis 20μl. The serial dilutions with Ciprofloxacin and Nystatin were prepared in special 384 well clear-transparent microtitration plate and were transferred in each 384 well microtitration plate before inoculation. […] The exact colony number of each strain was determined by a surface culture method. […] Reading: The reading of the grown wells was done by means of a photometer for microtitration plates at 590 nm by absorbance mode. For Mycobacterium smegmatis the microtitration plates were measured by luminescence mode after incubation with 20μl BacTiter-Glo™/well for 5 minutes at room temperature protected from light. Evaluation: The IC50 values were determined in XLfit 4, model function 205.

M. smegmatis (ATCC 607) = assay: Broth microdilution IC50 determination, M. smegmatis; assay type: cell-based, Mycobacterium smegmatis; settings: Mycolicibacterium smegmatis, ATCC607, assay mode Lum. (ATP level), 48 h incubation
Text: (§2) A test which is based on determining the intracellular concentration of ATP is employed for measuring the bacterial viability. It relies on the fact that intact living bacteria have higher intra-cellular ATP levels than bacterial cells which are damaged by the action of antimicrobials. The formulation of the reagent supports bacterial cell lysis and ATP is quantified luminometrically by a luciferin/luciferase reaction. The compounds of the formula (I) are used in a test as further outlined in Examples section in a single dose of 0.125-64μg/ml and a dose dependency is given as a IC50 value in Table 6. This Example describes the standard broth dilution method-microdilution used to determine the in vitro susceptibility of bacteria growing aerobically according to NCCLS M7-A7. The IC50 value of the compound to be tested is calculated as the inhibitory concentration of 50% at which 50% visible turbidity or the ATP level is inhibited. Compound stock solutions were prepared at concentrations of at least 1000μg/ml with methanol. After testing, the stock solution is aliquoted and stored at −80° C. Nystatin was dissolved in DMSO and then further dissolved in the respective culture medium. For every test strain following controls on each 384 well clear-transparent microtitration plate are needed: • drug-free growth control, • sterile control, and • Ciprofloxacin and Nystatin as reference compounds. For Mycobacterium smegmatis a special 384 well white microtitration plate was used. For an IC50 determination at least ten or twenty serial dilutions (geometrical dilution with factor 2) were prepared. [table] […] The exact colony number of each strain was determined by a surface culture method. […] Reading: The reading of the grown wells was done by means of a photometer for microtitration plates at 590 nm by absorbance mode. For Mycobacterium smegmatis the microtitration plates were measured by luminescence mode after incubation with 20μl BacTiter-Glo™/well for 5 minutes at room temperature protected from light. Evaluation: The IC50 values were determined in XLfit 4, model function 205.

S. pyogenes (ATCC 12344) = assay: Broth microdilution IC50 determination, S. pyogenes; assay type: cell-based; settings: Streptococcus pyogenes, ATCC12344, assay mode Abs. (590 nm), 20 h incubation
Method: as §1, with “prepared. [table]” for “prepared.”

[1] = tested on: S. pneumoniae (DSMZ 11865); assay: Broth microdilution IC50 determination, S. pneumoniae; assay type: cell-based; settings: Streptococcus pneumoniae, DSMZ11865, assay mode Lum.
Text: as §2, with “For” for “For Mycobacterium smegmatis a special 384 well white microtitration plate was used. For”, “The usual test concentrations range from 64 to 0.125μg/ml or 64 to 0.0001μg/ml for strong inhibition.” for “[table]”

E. faecalis (ATCC 29212) = assay: Broth microdilution IC50 determination, E. faecalis; assay type: cell-based; settings: Enterococcus faecalis, ATCC29212, assay mode Abs. (590 nm), 20 h incubation
Method: as §1, with “prepared. [table]” for “prepared.”

S. aureus (ATCC 29213) = assay: Broth microdilution IC50 determination, S. aureus ATCC 29213; assay type: cell-based; settings: Staphylococcus aureus, ATCC29213, assay mode Abs. (590 nm), 20 h incubation
Method: as §1, with “prepared. [table]” for “prepared.”

| IC50 (S. aureus (ATCC 33592)) | IC50 (M. smegmatis (ATCC 607)) | IC50 (S. pyogenes (ATCC 12344)) | IC50 [1] | IC50 (E. faecalis (ATCC 29212)) | IC50 (S. aureus (ATCC 29213)) | Structure (SMILES) |
| --- | --- | --- | --- | --- | --- | --- |
| 0.03 µg/mL (≈ 0.0781 µM) | 0.4 µg/mL (≈ 1.04 µM) | 0.28 µg/mL (≈ 0.729 µM) | 0.28 µg/mL (≈ 0.729 µM) | 0.87 µg/mL (≈ 2.26 µM) | 0.08 µg/mL (≈ 0.208 µM) | CCCCCCc1c(O)ccc2c1O[C@]1(C2=O)C(Cl)=C(Cl)C(=O)N1C [(II), Streptospirole A] |
| 0.02 µg/mL (≈ 0.052 µM) | 0.26 µg/mL (≈ 0.677 µM) | 0.12 µg/mL (≈ 0.312 µM) | 0.34 µg/mL (≈ 0.885 µM) | 0.59 µg/mL (≈ 1.54 µM) | 0.05 µg/mL (≈ 0.13 µM) | CC(C)CCCc1c(O)ccc2c1O[C@]1(C2=O)C(Cl)=C(Cl)C(=O)N1C [(III), Streptospirole B] |
| 0.003 µg/mL (≈ 0.00753 µM) | 0.09 µg/mL (≈ 0.226 µM) | 0.04 µg/mL (≈ 0.1 µM) | 0.21 µg/mL (≈ 0.527 µM) | 0.07 µg/mL (≈ 0.176 µM) | 0.005 µg/mL (≈ 0.0126 µM) | CC[C@H](C)CCCc1c(O)ccc2c1O[C@]1(C2=O)C(Cl)=C(Cl)C(=O)N1C [(IV), Streptospirole C] |
